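All cell lines were grown in 96-well plates and treated with compound for 48 hours. At the GI50, growth is halved.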 Calls of active or inactive are those of the source. No stated cut-off is given here; in the data, active = GI50 up to about 1.1 µM and inactive = higher.
Tests used:
Experiment in all cases: NCI anticancer screen, dose series, 48 h
[1] = test system: Malme-3M
[2] = test system: LOX IMVI
[3] = test system: MOLT-4
[4] = test system: HCT-15
[5] = test system: SK-MEL-5
[6] = test system: HCC 2998
[7] = test system: BT-549
[8] = test system: PC-3
[9] = test system: EKVX
[10] = test system: M14
[11] = test system: SNB-19
[12] = test system: SF-539
[13] = test system: SK-MEL-2
[14] = test system: MDA-N
[15] = test system: HT-29
[16] = test system: COLO 205
[17] = test system: MDA-MB-435
[18] = test system: KM12
[19] = test system: UACC-62
[20] = test system: SNB-75
[21] = test system: TK-10
[22] = test system: U-251
[23] = test system: K562
[24] = test system: A549
[25] = test system: NCI-H226
[26] = test system: CCRF-CEM
[27] = test system: SF-268
[28] = test system: NCI-H460
[29] = test system: OVCAR-4
[30] = test system: OVCAR-8
[31] = test system: 786-0
[32] = test system: NCI-H522
[33] = test system: SK-OV-3
[34] = test system: T47D
[35] = test system: SN12C
[36] = test system: CAKI-1
[37] = test system: NCI-H23
[38] = test system: RPMI-8226
[39] = test system: NCI/ADR-RES
[40] = test system: HL-60
[41] = test system: HOP-62
[42] = test system: ACHN
[43] = test system: HOP-92
[44] = test system: UO-31
[45] = test system: RXF 393
[46] = test system: Hs-578T
[47] = test system: OVCAR-5
[48] = test system: SR
[49] = test system: MCF7
[50] = test system: OVCAR-3
[51] = test system: MDA-MB-231
[52] = test system: SF-295
[53] = test system: UACC-257
[54] = test system: SW-620
[55] = test system: IGROV-1
[56] = test system: DU-145
[57] = test system: HCT-116
[58] = test system: A498
[59] = test system: SK-MEL-28

Q: With `Clc1ccc(Cc2nc3ccccc3nc2-c2cccc(Br)c2)cc1` as the molecule, how does the GI50 [1] read?
A: 4.45 µM (inactive)

Q: What about the GI50 [2] of the same molecule?
A: 1.97 µM (inactive)

Q: What about the GI50 [3] of the same molecule?
A: 2.22 µM (inactive)

Q: What about the GI50 [4] of the same molecule?
A: 1.41 µM

Q: And the GI50 [5]?
A: 13.9 µM (inactive)

Q: And the GI50 [6]?
A: 1.62 µM (inactive)

Q: What about the GI50 [7] of the same molecule?
A: 3.5 µM (inactive)

Q: What about the GI50 [8] of the same molecule?
A: 1.92 µM (inactive)

Q: And the GI50 [9]?
A: 15.1 µM (inactive)

Q: And the GI50 [10]?
A: 2.32 µM (inactive)

Q: And the GI50 [11]?
A: 1.52 µM (inactive)

Q: What about the GI50 [12] of the same molecule?
A: 2.26 µM (inactive)

Q: What about the GI50 [13] of the same molecule?
A: 4.67 µM (inactive)

Q: What about the GI50 [14] of the same molecule?
A: 1.97 µM (inactive)

Q: What about the GI50 [15] of the same molecule?
A: 2.5 µM (inactive)

Q: And the GI50 [16]?
A: 3.17 µM (inactive)

Q: And the GI50 [17]?
A: 2.14 µM (inactive)

Q: And the GI50 [18]?
A: 8.59 µM (inactive)

Q: And the GI50 [19]?
A: 1.91 µM (inactive)

Q: What about the GI50 [20] of the same molecule?
A: 20.4 µM (inactive)

Q: And the GI50 [21]?
A: 13.7 µM (inactive)

Q: What about the GI50 [22] of the same molecule?
A: 7.41 µM (inactive)

Q: And the GI50 [23]?
A: 2.8 µM (inactive)

Q: And the GI50 [24]?
A: 17 µM (inactive)

Q: And the GI50 [25]?
A: 16.9 µM (inactive)

Q: And the GI50 [26]?
A: 1.07 µM (active)

Q: What about the GI50 [27] of the same molecule?
A: 19.8 µM (inactive)

Q: What about the GI50 [28] of the same molecule?
A: 18.3 µM (inactive)

Q: And the GI50 [29]?
A: 2.18 µM (inactive)

Q: And the GI50 [30]?
A: 2.92 µM (inactive)

Q: What about the GI50 [31] of the same molecule?
A: 1.75 µM (inactive)

Q: And the GI50 [32]?
A: 1.78 µM (inactive)

Q: What about the GI50 [33] of the same molecule?
A: 16.8 µM (inactive)

Q: And the GI50 [34]?
A: 1.87 µM (inactive)

Q: And the GI50 [35]?
A: 3.1 µM (inactive)

Q: What about the GI50 [36] of the same molecule?
A: 2.22 µM (inactive)

Q: And the GI50 [37]?
A: 13.5 µM (inactive)

Q: What about the GI50 [38] of the same molecule?
A: 1.64 µM (inactive)

Q: What about the GI50 [39] of the same molecule?
A: 3.08 µM (inactive)

Q: What about the GI50 [40] of the same molecule?
A: 2.84 µM (inactive)

Q: What about the GI50 [41] of the same molecule?
A: 17.9 µM (inactive)

Q: What about the GI50 [42] of the same molecule?
A: 1.91 µM (inactive)

Q: What about the GI50 [43] of the same molecule?
A: 0.243 µM (active)

Q: What about the GI50 [44] of the same molecule?
A: 1.87 µM (inactive)

Q: What about the GI50 [45] of the same molecule?
A: 2.47 µM (inactive)

Q: What about the GI50 [46] of the same molecule?
A: 1.69 µM (inactive)

Q: And the GI50 [47]?
A: 4.19 µM (inactive)

Q: What about the GI50 [48] of the same molecule?
A: 1.75 µM (inactive)

Q: What about the GI50 [49] of the same molecule?
A: 3.17 µM (inactive)

Q: What about the GI50 [50] of the same molecule?
A: 2.33 µM (inactive)

Q: What about the GI50 [51] of the same molecule?
A: 3.6 µM (inactive)

Q: What about the GI50 [52] of the same molecule?
A: 16.1 µM (inactive)

Q: What about the GI50 [53] of the same molecule?
A: 3.1 µM (inactive)

Q: What about the GI50 [54] of the same molecule?
A: 2.04 µM (inactive)

Q: What about the GI50 [55] of the same molecule?
A: 1.8 µM (inactive)

Q: What about the GI50 [56] of the same molecule?
A: 10.7 µM (inactive)

Q: What about the GI50 [57] of the same molecule?
A: 1.88 µM (inactive)

Q: What does the source list for `CC#CC(O)(C(=O)OC1CC2CCC(C1)N2C)C1CCCC1` (centres undefined)?
A: GI50 [2]: > 100 µM (inactive); GI50 [3]: > 100 µM (inactive); GI50 [4]: > 100 µM; GI50 [5]: > 100 µM (inactive); GI50 [6]: > 100 µM (inactive); GI50 [7]: > 100 µM (inactive); GI50 [8]: > 100 µM (inactive); GI50 [9]: > 100 µM (inactive); GI50 [10]: > 100 µM (inactive); GI50 [11]: > 100 µM (inactive); GI50 [12]: > 100 µM (inactive); GI50 [13]: > 100 µM (inactive); GI50 [14]: > 100 µM (inactive); GI50 [15]: > 100 µM (inactive); GI50 [16]: > 100 µM (inactive); GI50 [17]: > 100 µM (inactive); GI50 [18]: > 100 µM (inactive); GI50 [19]: > 100 µM (inactive); GI50 [20]: > 100 µM (inactive); GI50 [21]: > 100 µM (inactive); GI50 [22]: > 100 µM (inactive); GI50 [23]: > 100 µM (inactive); GI50 [58]: > 100 µM (inactive); GI50 [24]: > 100 µM (inactive); GI50 [25]: > 100 µM (inactive); GI50 [26]: > 100 µM (inactive); GI50 [27]: > 100 µM (inactive); GI50 [28]: > 100 µM (inactive); GI50 [29]: > 100 µM (inactive); GI50 [30]: > 100 µM (inactive); GI50 [31]: > 100 µM (inactive); GI50 [33]: > 100 µM (inactive); GI50 [34]: > 100 µM (inactive); GI50 [35]: > 100 µM (inactive); GI50 [36]: > 100 µM (inactive); GI50 [37]: > 100 µM (inactive); GI50 [38]: > 100 µM (inactive); GI50 [39]: > 100 µM (inactive); GI50 [40]: > 100 µM (inactive); GI50 [41]: > 100 µM (inactive); GI50 [42]: > 100 µM (inactive); GI50 [43]: > 100 µM (inactive); GI50 [44]: > 100 µM (inactive); GI50 [59]: > 100 µM (inactive); GI50 [45]: > 100 µM (inactive); GI50 [46]: > 100 µM (inactive); GI50 [47]: > 100 µM (inactive); GI50 [48]: > 100 µM (inactive); GI50 [49]: > 100 µM (inactive); GI50 [50]: > 100 µM (inactive); GI50 [51]: > 100 µM (inactive); GI50 [52]: > 100 µM (inactive); GI50 [53]: > 100 µM (inactive); GI50 [54]: > 100 µM (inactive); GI50 [55]: > 100 µM (inactive); GI50 [56]: > 100 µM (inactive); GI50 [57]: > 100 µM (inactive)

Source: ChEMBL document CHEMBL1201862, “PubChem BioAssay data set” (2004)
